Tests used:
[1] = molecular target: GDP-bound KRAS wild-type protein (Homo sapiens, UniProt P01116); assay: Binding to KRAS by surface plasmon resonance (SPR), Single Cycle Kinetics; settings: SPR Single Cycle Kinetics, GDP-bound KRAS wild-type protein, 1:1 binding model; read-out: KRAS KD
[2] = molecular target: GDP-bound NRAS wild-type protein (Homo sapiens, UniProt P01111); assay: Binding to NRAS by surface plasmon resonance (SPR), Single Cycle Kinetics; settings: SPR, GDP-bound NRAS wild-type protein vs GDP-bound KRAS wild-type protein
Chain of GDP-bound NRAS wild-type protein (P01111 whole entry): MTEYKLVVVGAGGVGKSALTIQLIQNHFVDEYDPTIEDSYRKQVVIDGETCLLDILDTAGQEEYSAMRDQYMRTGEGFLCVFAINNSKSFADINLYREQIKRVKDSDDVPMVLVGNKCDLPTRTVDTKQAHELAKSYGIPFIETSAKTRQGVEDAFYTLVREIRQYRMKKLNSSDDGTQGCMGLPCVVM

[3] = molecular target: GDP-bound HRAS wild-type protein (Homo sapiens, UniProt P01112); assay: Binding to HRAS by surface plasmon resonance (SPR), Single Cycle Kinetics; settings: SPR, GDP-bound HRAS wild-type protein vs GDP-bound KRAS wild-type protein
Chain of GDP-bound HRAS wild-type protein (P01112 whole entry): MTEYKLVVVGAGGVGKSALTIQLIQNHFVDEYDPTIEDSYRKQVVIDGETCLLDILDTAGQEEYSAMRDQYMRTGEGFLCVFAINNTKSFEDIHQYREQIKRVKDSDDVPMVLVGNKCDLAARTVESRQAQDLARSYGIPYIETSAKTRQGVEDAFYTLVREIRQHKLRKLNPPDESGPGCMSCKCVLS

Chain of GDP-bound KRAS wild-type protein (P01116 whole entry): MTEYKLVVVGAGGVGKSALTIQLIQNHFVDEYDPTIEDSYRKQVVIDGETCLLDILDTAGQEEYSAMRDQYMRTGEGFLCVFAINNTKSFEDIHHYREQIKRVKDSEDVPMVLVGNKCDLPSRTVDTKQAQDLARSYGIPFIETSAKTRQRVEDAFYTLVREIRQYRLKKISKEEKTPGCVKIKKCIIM

| SMILES | Kd [1] [nM] | NRAS/KRAS (ratio of KD value with respect to NRAS to KD value with respect to KRAS) [2] | HRAS/KRAS (ratio of KD value with respect to HRAS to KD value with respect to KRAS) [3] |
| --- | --- | --- | --- |
| CC[C@H](C)[C@@H]1NC(=O)[C@H](CC(C)C)N(C)C(=O)C[C@@H](C(=O)N2CCOCC2)N(C)C(=O)[C@H](C2CCCC2)N(C)C(=O)C2(CCCC2)NC(=O)[C@@H]2CC(=O)CN2C(=O)[C@H](CCc2cc(F)c(C(F)(F)F)c(F)c2)NC(=O)CN(C)C(=O)[C@H](Cc2ccc(C(F)(F)F)cc2)N2CCCC[C@@H](C2=O)N(C)C(=O)CN(C)C1=O [PP0555] | 0.066 | B (a compound having 3 or more and less than 10 is denoted as B) | B (a compound having 3 or more and less than 10 is denoted as B) |
| CC[C@H](C)[C@@H]1NC(=O)[C@H](CC(C)C)N(C)C(=O)C[C@@H](C(=O)N2CCOCC2)N(C)C(=O)[C@H](C2CCCC2)N(C)C(=O)C2(CCCC2)NC(=O)[C@@H]2C[C@H](O)CN2C(=O)[C@H](CCc2cc(F)c(C(F)(F)F)c(F)c2)NC(=O)CN(C)C(=O)[C@H](Cc2ccc(C(F)(F)F)cc2)N2CCCC[C@@H](C2=O)N(C)C(=O)CN(C)C1=O [PP0556] | 0.024 | C (A compound having a KD ratio of 0.1 or more and less than 3 is denoted as C) | B (a compound having 3 or more and less than 10 is denoted as B) |
| CC[C@H](C)[C@@H]1NC(=O)[C@H](CC(C)C)N(C)C(=O)C[C@@H](C(=O)N2CCOCC2)N(C)C(=O)[C@H](C2CCCC2)N(C)C(=O)C2(CCCC2)NC(=O)[C@@H]2C[C@H](OC)CN2C(=O)[C@H](CCc2cc(F)c(C(F)(F)F)c(F)c2)NC(=O)CN(C)C(=O)[C@H](Cc2ccc(C(F)(F)F)cc2)N2CCCC[C@@H](C2=O)N(C)C(=O)CN(C)C1=O [PP0557] | 0.11 | B (a compound having 3 or more and less than 10 is denoted as B) | B (a compound having 3 or more and less than 10 is denoted as B) |
| CC[C@H](C)[C@@H]1NC(=O)[C@H](CC(C)C)N(C)C(=O)C[C@@H](C(=O)N2CCOCC2)N(C)C(=O)[C@H](C2CCCC2)N(C)C(=O)C2(CC2)NC(=O)[C@@H]2CCCN2C(=O)[C@H](CCc2cc(F)c(C(F)(F)F)c(F)c2)NC(=O)CN(C)C(=O)[C@H](Cc2ccc(C(F)(F)F)cc2)N2CCCC[C@@H](C2=O)N(C)C(=O)CN(C)C1=O [PP0559] | 0.16 | B (a compound having 3 or more and less than 10 is denoted as B) | B (a compound having 3 or more and less than 10 is denoted as B) |
| CC[C@H](C)[C@@H]1NC(=O)[C@H](CC(C)C)N(C)C(=O)C[C@@H](C(=O)N2CCOCC2)N(C)C(=O)[C@H](C2CCCC2)N(C)C(=O)C2(CCC2)NC(=O)[C@@H]2CCCN2C(=O)[C@H](CCc2cc(F)c(C(F)(F)F)c(F)c2)NC(=O)CN(C)C(=O)[C@H](Cc2ccc(C(F)(F)F)cc2)N2CCCC[C@@H](C2=O)N(C)C(=O)CN(C)C1=O [PP0560] | 0.05 | B (a compound having 3 or more and less than 10 is denoted as B) | B (a compound having 3 or more and less than 10 is denoted as B) |
| CC[C@H](C)[C@@H]1NC(=O)[C@H](CC(C)C)N(C)C(=O)C[C@@H](C(=O)N2CCOCC2)N(C)C(=O)[C@H](C2CCCC2)N(C)C(=O)C2(CCCCC2)NC(=O)[C@@H]2CCCN2C(=O)[C@H](CCc2cc(F)c(C(F)(F)F)c(F)c2)NC(=O)CN(C)C(=O)[C@H](Cc2ccc(C(F)(F)F)cc2)N2CCCC[C@@H](C2=O)N(C)C(=O)CN(C)C1=O [PP0561] | 0.31 | B (a compound having 3 or more and less than 10 is denoted as B) | B (a compound having 3 or more and less than 10 is denoted as B) |
